What all share (format): biochemical
One assay has as its target T1, p110δ/p85α (Homo sapiens, UniProt O00329).
T1 construct: purchased Invitrogen
The experiment in a line: Transcreener KINASE Assay, kinase inhibition of p110δ/p85α. The settings on record: for IC50: read-out: PI3Kδ IC50. How it is done:
(§1) PI3K kinases including p110α/p85α, p110δ/p85α and p110γ are purchased from Invitrogen, and p110β/p85α is from Millipore.
(§2) Primary screening data and IC50 values are measured using Transcreener™ KINASE Assay (Bellbrook, Catalog #3003-10K). […] It is a universal, homogenous, high throughput screening (HTS) technology using a far-red, competitive fluorescence polarization immunoassay based on the detection of ADP to monitor the activity of enzymes that catalyze group transfer reactions. Briefly, the Transcreener KINASE Assay is designed as a simple two-part, endpoint assay.
(§3) In the first step, the 25 ul kinase reaction is performed by preparing a reaction mixture containing 5 ul test compound (2% DMSO final concentration), 10 ul kinase, buffer (50 mM HEPES, 100 mM NaCl, 1 mM EGTA, 0.03% CHAPS, 3 mM MgCl2, and freshly supplemented 1 mM DTT), and 10 ul 30 uM PIP2/10 uM ATP. The plate is sealed and incubated for 80 min at room temperature. Next, 25 ul ADP detection mix is added per well. The plate is sealed again and incubated for 60 min at room temperature, and then measure fluorescence polarization by Tecan Infinite F500 Reader.
(§4) Data is analyzed and IC50s are generated using the add-in software for Microsoft Excel, Xlfit™ (version 2.0). IH %=(ADP amount under 2% DMSO-ADP amount under test compound)/ADP amount under 2% DMSO.

The next assay has as its target T2, p110γ (Homo sapiens, UniProt P48736).
T2 construct: purchased Invitrogen
The experiment in a line: Transcreener KINASE Assay, kinase inhibition of p110γ. The settings on record: for IC50: read-out: PI3Kγ IC50. As to the method: PI3K kinases including p110α/p85α, p110δ/p85α and p110γ are purchased from Invitrogen, and p110β/p85α is from Millipore. Primary screening data and IC50 values are measured using Transcreener™ KINASE Assay (Bellbrook, Catalog #3003-10K). […] It is a universal, homogenous, high throughput screening (HTS) technology using a far-red, competitive fluorescence polarization immunoassay based on the detection of ADP to monitor the activity of enzymes that catalyze group transfer reactions. Briefly, the Transcreener KINASE Assay is designed as a simple two-part, endpoint assay. […] The plate is sealed and incubated for 80 min at room temperature. Next, 25 ul ADP detection mix is added per well. The plate is sealed again and incubated for 60 min at room temperature, and then measure fluorescence polarization by Tecan Infinite F500 Reader. Data is analyzed and IC50s are generated using the add-in software for Microsoft Excel, Xlfit™ (version 2.0).

The target in the next assay is T3, p110β/p85α (Homo sapiens, UniProt P42338).
T3 construct: purchased Millipore
T3 sequence (P42338 whole entry, species assumed): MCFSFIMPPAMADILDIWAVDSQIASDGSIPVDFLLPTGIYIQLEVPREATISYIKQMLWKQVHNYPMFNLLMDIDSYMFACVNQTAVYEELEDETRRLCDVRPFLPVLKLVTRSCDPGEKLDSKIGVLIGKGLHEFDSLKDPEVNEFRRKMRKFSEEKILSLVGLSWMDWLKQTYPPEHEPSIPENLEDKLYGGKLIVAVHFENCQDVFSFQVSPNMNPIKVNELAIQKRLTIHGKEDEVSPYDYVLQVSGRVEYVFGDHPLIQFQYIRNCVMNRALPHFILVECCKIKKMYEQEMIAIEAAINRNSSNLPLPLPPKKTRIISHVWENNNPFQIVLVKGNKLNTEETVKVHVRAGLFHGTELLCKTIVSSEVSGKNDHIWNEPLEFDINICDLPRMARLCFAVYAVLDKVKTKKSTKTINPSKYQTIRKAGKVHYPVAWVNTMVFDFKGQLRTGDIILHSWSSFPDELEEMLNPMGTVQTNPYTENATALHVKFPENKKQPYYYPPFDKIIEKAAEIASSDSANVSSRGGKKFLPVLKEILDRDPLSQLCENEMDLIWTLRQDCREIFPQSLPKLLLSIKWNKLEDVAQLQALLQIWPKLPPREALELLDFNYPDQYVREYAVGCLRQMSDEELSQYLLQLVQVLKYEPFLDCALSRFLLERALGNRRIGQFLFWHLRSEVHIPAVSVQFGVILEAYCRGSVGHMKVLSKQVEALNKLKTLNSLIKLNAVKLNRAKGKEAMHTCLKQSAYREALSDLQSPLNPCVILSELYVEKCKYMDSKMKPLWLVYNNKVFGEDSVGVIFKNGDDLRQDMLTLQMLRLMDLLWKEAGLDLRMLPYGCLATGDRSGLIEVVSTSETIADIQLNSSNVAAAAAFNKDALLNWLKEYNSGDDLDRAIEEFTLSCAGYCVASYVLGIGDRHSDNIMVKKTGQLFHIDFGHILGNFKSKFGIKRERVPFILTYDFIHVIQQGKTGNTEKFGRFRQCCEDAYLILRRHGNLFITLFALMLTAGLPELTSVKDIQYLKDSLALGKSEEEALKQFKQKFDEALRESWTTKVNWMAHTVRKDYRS
T3 sequence (P27986 whole entry partner, species assumed): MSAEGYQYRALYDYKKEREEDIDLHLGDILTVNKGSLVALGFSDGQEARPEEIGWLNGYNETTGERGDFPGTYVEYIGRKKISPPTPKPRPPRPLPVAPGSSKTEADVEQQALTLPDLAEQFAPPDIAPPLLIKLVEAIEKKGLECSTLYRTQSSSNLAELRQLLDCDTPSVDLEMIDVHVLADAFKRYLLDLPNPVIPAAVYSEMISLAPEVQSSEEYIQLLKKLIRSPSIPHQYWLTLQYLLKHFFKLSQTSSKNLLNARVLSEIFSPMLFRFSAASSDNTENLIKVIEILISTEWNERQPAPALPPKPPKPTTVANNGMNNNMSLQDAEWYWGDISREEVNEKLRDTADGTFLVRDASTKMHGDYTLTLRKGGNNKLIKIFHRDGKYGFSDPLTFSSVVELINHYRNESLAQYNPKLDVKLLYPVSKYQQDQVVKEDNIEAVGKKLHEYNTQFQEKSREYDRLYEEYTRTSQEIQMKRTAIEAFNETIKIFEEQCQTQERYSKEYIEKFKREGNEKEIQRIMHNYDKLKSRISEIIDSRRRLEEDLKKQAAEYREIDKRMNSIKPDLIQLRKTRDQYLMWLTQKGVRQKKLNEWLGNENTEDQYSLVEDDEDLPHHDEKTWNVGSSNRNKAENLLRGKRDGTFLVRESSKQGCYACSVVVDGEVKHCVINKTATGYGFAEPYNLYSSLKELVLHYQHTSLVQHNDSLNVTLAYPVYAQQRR
In words: Transcreener KINASE Assay, kinase inhibition of p110β/p85α. The settings on record: for IC50: read-out: PI3Kβ IC50. How it is done: as §1, §2, §3, §4

Each structure is given as a SMILES string. Bounds are passed on as bounds.

T2 sequence (P48736 whole entry, species assumed): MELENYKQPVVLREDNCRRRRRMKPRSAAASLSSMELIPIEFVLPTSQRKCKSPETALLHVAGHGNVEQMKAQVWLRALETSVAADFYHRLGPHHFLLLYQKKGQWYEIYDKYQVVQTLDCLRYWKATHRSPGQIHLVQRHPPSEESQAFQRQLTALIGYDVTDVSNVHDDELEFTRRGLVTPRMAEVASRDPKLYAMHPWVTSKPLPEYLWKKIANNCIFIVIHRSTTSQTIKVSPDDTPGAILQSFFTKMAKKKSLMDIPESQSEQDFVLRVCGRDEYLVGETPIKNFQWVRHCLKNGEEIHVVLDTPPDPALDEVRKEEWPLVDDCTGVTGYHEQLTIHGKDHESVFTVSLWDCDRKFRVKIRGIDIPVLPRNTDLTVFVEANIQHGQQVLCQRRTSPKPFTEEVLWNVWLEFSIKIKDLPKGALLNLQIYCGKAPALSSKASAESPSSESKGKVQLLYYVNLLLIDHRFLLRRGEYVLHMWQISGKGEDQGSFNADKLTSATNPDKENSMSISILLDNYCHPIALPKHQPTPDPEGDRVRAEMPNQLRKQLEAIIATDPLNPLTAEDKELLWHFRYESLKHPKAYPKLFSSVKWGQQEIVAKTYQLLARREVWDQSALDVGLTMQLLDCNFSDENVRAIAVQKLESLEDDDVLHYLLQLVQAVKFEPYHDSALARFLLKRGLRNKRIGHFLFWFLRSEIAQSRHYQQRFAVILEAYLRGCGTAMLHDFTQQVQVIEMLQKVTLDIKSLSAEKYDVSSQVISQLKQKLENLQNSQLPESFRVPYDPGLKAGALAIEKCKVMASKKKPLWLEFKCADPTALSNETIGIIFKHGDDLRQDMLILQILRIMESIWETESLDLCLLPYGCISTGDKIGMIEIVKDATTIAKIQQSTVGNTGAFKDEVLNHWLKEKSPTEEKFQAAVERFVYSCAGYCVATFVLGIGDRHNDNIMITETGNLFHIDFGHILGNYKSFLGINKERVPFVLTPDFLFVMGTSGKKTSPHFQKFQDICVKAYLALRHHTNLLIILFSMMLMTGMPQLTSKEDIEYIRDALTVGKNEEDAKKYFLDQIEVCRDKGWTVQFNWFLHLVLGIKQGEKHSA
T1 sequence (O00329 whole entry, species assumed): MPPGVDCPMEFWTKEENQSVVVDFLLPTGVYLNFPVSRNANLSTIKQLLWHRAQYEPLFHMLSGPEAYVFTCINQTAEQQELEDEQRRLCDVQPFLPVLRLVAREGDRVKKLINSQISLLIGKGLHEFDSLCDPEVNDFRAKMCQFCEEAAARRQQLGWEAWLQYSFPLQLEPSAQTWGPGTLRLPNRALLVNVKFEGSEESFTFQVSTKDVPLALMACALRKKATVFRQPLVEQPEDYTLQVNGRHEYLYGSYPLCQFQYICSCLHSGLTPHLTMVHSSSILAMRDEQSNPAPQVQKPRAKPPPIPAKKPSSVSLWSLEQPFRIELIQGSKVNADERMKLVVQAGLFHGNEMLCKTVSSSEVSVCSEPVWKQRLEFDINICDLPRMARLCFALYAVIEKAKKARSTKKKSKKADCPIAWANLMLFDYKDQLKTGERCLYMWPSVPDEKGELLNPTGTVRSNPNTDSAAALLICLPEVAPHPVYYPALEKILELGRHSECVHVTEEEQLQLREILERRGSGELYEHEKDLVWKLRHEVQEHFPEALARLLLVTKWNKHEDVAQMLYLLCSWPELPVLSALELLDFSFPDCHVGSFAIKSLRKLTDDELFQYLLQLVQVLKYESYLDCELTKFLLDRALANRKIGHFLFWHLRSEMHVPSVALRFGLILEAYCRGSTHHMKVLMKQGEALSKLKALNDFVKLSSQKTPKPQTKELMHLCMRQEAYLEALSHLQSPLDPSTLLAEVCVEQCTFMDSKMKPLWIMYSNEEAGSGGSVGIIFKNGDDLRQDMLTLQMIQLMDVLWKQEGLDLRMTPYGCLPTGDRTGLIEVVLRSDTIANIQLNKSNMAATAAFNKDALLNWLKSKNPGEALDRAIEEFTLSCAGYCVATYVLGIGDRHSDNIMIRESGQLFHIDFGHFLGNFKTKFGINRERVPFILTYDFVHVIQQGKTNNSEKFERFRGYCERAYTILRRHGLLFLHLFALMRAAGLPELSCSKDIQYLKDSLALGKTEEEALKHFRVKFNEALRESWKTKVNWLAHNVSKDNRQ
T1 sequence (P27986 whole entry partner, species assumed): as the sequence (P27986 whole entry partner, species assumed) above

What is called IC50 is the concentration that inhibits the measured activity by half. Regarding `CC(Nc1ncnc2[nH]cnc12)c1cn2ccc(Cl)c2c(=O)n1-c1cc(F)cc(F)c1` (stereo not shown) [Compound 80], at p110δ/p85α, the “PI3Kδ IH % @ 1 uM” value was above 100% and the IC50 was 7 nM. Also, the IC50 at p110γ worked out at 46 nM.

For the compound `O=c1c2c(Cl)ccn2nc([C@@H]2CCCN2c2ncnc3[nH]ccc23)n1-c1ccccc1` [Compound 145], the “PI3Kγ IH % @ 1 uM” value at p110γ worked out at 100%.

For `COc1cccc(-n2c([C@@H]3CCCN3c3ncnc(N)c3C#N)nn3cccc3c2=O)c1` [Compound 19], the “PI3Kβ IH % @ 1 uM” value on p110β/p85α is 24.0%. Besides, the “PI3Kδ IH % @ 1 uM” value on p110δ/p85α was determined as 100%. Moreover, at p110γ, the “PI3Kγ IH % @ 1 uM” value came to 75.7% and the IC50 was determined as 287 nM.

`O=c1c2c(Cl)ccn2nc([C@@H]2COCCN2c2ncnc3[nH]cnc23)n1-c1ccccc1` [Compound 153]: the IC50 was 11 nM at p110δ/p85α and 165 nM on p110γ.

On to `C[S+]([O-])c1c[nH]c2ncnc(N3CCC[C@H]3c3nn4ccc(Cl)c4c(=O)n3-c3ccccc3)c12` (stereo partly shown) [Compound 188], for which the IC50 on p110β/p85α amounted to 741 nM; at p110δ/p85α, 5 nM; on p110γ, 17 nM.

`CC(Nc1ncnc(N)c1C#N)c1cn2ccc(Cl)c2c(=O)n1-c1cc(F)cc(F)c1` (stereo not shown) [Compound 81]: the “PI3Kβ IH % @ 1 uM” value at p110β/p85α is listed as 79.0%. Besides, at p110δ/p85α, the “PI3Kδ IH % @ 1 uM” value is above 100%. The IC50 was 6 nM on p110δ/p85α and 70 nM at p110γ.

Consider `Nc1ncc(-c2c[nH]c3ncnc(N4CC[C@H]4c4nn5ccc(Cl)c5c(=O)n4-c4ccccc4)c23)cn1` [Compound 104], for which the IC50 on p110δ/p85α was below 0.5 nM.

As for `O=c1c2cccn2nc([C@H]2CCCN2c2ncnc3[nH]cnc23)n1-c1ccccc1` [Compound 24], the “PI3Kβ IH % @ 1 uM” value on p110β/p85α is given as 8.3%. For the same compound, the “PI3Kδ IH % @ 1 uM” value on p110δ/p85α came out at 17.7%. Besides, on p110γ, the “PI3Kγ IH % @ 1 uM” value came out at 14.1%.

Regarding `N#Cc1c[nH]c2ncnc(N3C[C@@H](F)C[C@H]3c3nn4ccc(Cl)c4c(=O)n3Cc3ccccn3)c12` [Compound 158], the “PI3Kγ IH % @ 1 uM” value on p110γ is recorded as 100%.

`O=c1c2cccn2nc([C@@H]2CCCN2c2ncnc3[nH]cc(-c4cn[nH]c4)c23)n1-c1ccccc1` [Compound 99]: at p110β/p85α, the “PI3Kβ IH % @ 1 uM” value was determined as 78.8% and the IC50 was 147 nM. Further, on p110δ/p85α, the “PI3Kδ IH % @ 1 uM” value is recorded as above 100% and the IC50 was found to be 3 nM. Further, on p110γ, the “PI3Kγ IH % @ 1 uM” value is 94.2% and the IC50 was found to be 6 nM.

Take `Nc1ncnc(N2CCC[C@H]2c2nn3cccc3c(=O)n2-c2ccccc2)c1Cl` [Compound 18]: at p110β/p85α, the “PI3Kβ IH % @ 1 uM” value is recorded as 30.9%. Moreover, the “PI3Kδ IH % @ 1 uM” value at p110δ/p85α is on record as 100%. Further, the “PI3Kγ IH % @ 1 uM” value at p110γ is listed as 53.2%.

For the compound `O=c1c2c(Cl)ccn2nc([C@@H]2CC(F)(F)CN2c2ncnc3[nH]cnc23)n1Cc1ccccn1` [Compound 159], the “PI3Kβ IH % @ 1 uM” value at p110β/p85α came out at 32.8%. Moreover, on p110δ/p85α, the “PI3Kδ IH % @ 1 uM” value is given as 85.0% and the IC50 worked out at 127 nM. Besides, on p110γ, the “PI3Kγ IH % @ 1 uM” value is reported as 20.4%.

In the case of `O=c1c2cccn2nc([C@@H]2CCCN2c2ncnc3[nH]cnc23)n1-c1cccc(Cl)c1` [Compound 17], the “PI3Kβ IH % @ 1 uM” value at p110β/p85α is listed as 9.2%. Besides, at p110δ/p85α, the “PI3Kδ IH % @ 1 uM” value is 100%. Also, the “PI3Kγ IH % @ 1 uM” value on p110γ was found to be 60.3%.

`N#Cc1c[nH]c2ncnc(N3C[C@H](O)C[C@H]3c3nn4ccc(Cl)c4c(=O)n3-c3ccccc3)c12` [Compound 70, 4-((2S,4R)-2-(5-chloro-4-oxo-3-phenyl-3,4-dihydropyrrolo[1,2-f][1,2,4]triazin-2-yl)-4-hydroxypyrrolidin-1-yl)-7H-pyrrolo[2,3-d]pyrimidine-5-carbonitrile]: the “PI3Kγ IH % @ 1 uM” value on p110γ was above 100%.

In the case of `N#Cc1cccc(-n2c([C@@H]3CCCN3c3ncnc4[nH]cc(C#N)c34)nn3cccc3c2=O)c1` [Compound 23], the “PI3Kβ IH % @ 1 uM” value at p110β/p85α was found to be 36.9%. Moreover, at p110δ/p85α, the “PI3Kδ IH % @ 1 uM” value is given as 99.2%. In addition, on p110γ, the “PI3Kγ IH % @ 1 uM” value came out at 81.9% and the IC50 came to 273 nM.

Regarding `N#Cc1ccn2nc([C@@H]3CCCN3c3ncnc4[nH]cnc34)n(-c3ccccc3)c(=O)c12` [Compound 112], the “PI3Kβ IH % @ 1 uM” value at p110β/p85α is given as 34.5%. In addition, on p110δ/p85α, the “PI3Kδ IH % @ 1 uM” value is on record as 94.6% and the IC50 is 26 nM. Further, on p110γ, the “PI3Kγ IH % @ 1 uM” value is 96.4% and the IC50 is 231 nM.

With `O=c1c2c(Cl)ccn2nc([C@@H]2CCCN2c2ncnc3[nH]cnc23)n1CC1CC1` [Compound 256], the “PI3Kβ IH % @ 1 uM” value on p110β/p85α is 68.1%. Further, on p110δ/p85α, the “PI3Kδ IH % @ 1 uM” value is 97.5% and the IC50 was 6 nM. Further, on p110γ, the “PI3Kγ IH % @ 1 uM” value was above 100% and the IC50 came out at 82 nM.

`COc1ncc(-c2c[nH]c3ncnc(N4CC[C@H]4c4nn5ccc(F)c5c(=O)n4-c4ccccc4)c23)cn1` [Compound 181]: the IC50 on p110δ/p85α was below 0.46 nM.

Regarding `CC(O)c1cnc(N)nc1N1CC[C@H]1c1nn2ccc(Cl)c2c(=O)n1-c1ccccc1` (stereo partly drawn) [Compound 357, 2-((2S)-1-(2-amino-5-(1-hydroxyethyl)pyrimidin-4-yl)azetidin-2-yl)-5-chloro-3-phenylpyrrolo[2,1-f][1,2,4]triazin-4(3H)-one], the IC50 at p110δ/p85α is above 300 nM.

Regarding `CC(Nc1ncnc(N)c1C#N)c1cn2ccc(Cl)c2c(=O)n1-c1ccc(F)cc1` (stereo not shown) [Compound 79], the IC50 on p110β/p85α amounted to 6 nM. At p110δ/p85α, the “PI3Kδ IH % @ 1 uM” value is reported as 99.0%.

For `CC(Nc1ncnc2[nH]cc(F)c12)c1cc2ncc(Cl)n2c(=O)n1-c1ccccc1` (single isomer, unassigned) [Compound 451], the IC50 at p110δ/p85α stood at 35 nM.

Consider `Nc1ccc(-c2c[nH]c3ncnc(N4CC[C@H]4c4nn5ccc(F)c5c(=O)n4-c4ccccc4)c23)cn1` [Compound 183], for which, at p110δ/p85α, the IC50 is below 0.46 nM.

Consider `COc1ccc(-c2c(N)ncnc2N2CC[C@H]2c2nn3ccc(Cl)c3c(=O)n2-c2ccccc2)cn1` [Compound 108, (S)-2-(1-(6-amino-5-(6-methoxypyridin-3-yl)pyrimidin-4-yl)azetidin-2-yl)-5-chloro-3-phenylpyrrolo[1,2-f][1,2,4]triazin-4(3H)-one], for which the IC50 is 97 nM on p110δ/p85α and 199 nM on p110γ.

For the compound `C[S+]([O-])c1c[nH]c2ncnc(N3CCC[C@H]3c3nn4ccc(Cl)c4c(=O)n3-c3ccccc3)c12` (stereo partly shown) [Compound 187], the IC50 came to 88 nM at p110β/p85α and 33 nM at p110γ.

In the case of `O=c1c2c(Cl)ccn2nc([C@@H]2C[C@H](O)CN2c2ncnc3[nH]cnc23)n1-c1ccccc1` [Compound 262], the IC50 at p110δ/p85α is below 1 nM.

Turning to `Cc1ccn2nc([C@@H]3CCCN3c3ncnc4[nH]cc(C#N)c34)n(-c3ccccc3)c(=O)c12` [Compound 42], at p110δ/p85α, the IC50 was around 1 nM.

For `CC(Nc1ncnc2[nH]cnc12)c1cn2ccc(Cl)c2c(=O)n1-c1ccc(F)cc1` (stereo not shown) [Compound 78], the IC50 on p110β/p85α was found to be 26 nM; at p110γ, 18 nM.

`CO/N=C(\C)c1c[nH]c2ncnc(N3CCC[C@H]3c3nn4ccc(Cl)c4c(=O)n3-c3ccccc3)c12` [Compound 308]: the IC50 stood at 21 nM on p110δ/p85α and 37 nM on p110γ.

With `COc1ccc(-c2c[nH]c3ncnc(N4CC[C@H]4c4nn5ccc(F)c5c(=O)n4-c4ccccc4)c23)cn1` [Compound 182], the IC50 at p110δ/p85α was below 0.46 nM.

`C[S+]([O-])c1cnc(N)nc1N1CC[C@H]1c1nn2ccc(Cl)c2c(=O)n1-c1ccccc1` (stereo partly shown) [Compound 399]: the “PI3Kβ IH % @ 1 uM” value on p110β/p85α worked out at 3.5%.

`Nc1ncc([N+](=O)[O-])c(N2CC[C@H]2c2nn3ccc(Cl)c3c(=O)n2-c2ccccc2)n1` [Compound 282]: the values for the IC50 on p110δ/p85α and at p110γ were 40 nM and 25 nM, respectively.

For the origin of these results see US20150291593A1, “NOVEL HETEROARYL AND HETEROCYCLE COMPOUNDS, COMPOSITIONS AND METHODS” (HUTCHISON MEDIPHARMA LIMITED, priority 2012, published 2015).
